Results taken from patent US20090246292A1, “ANTIMICROBIAL FORMULATIONS COMPRISING A QUINONE AND A COPPER SALT” (priority 2006, published 2009).
Where two headings read alike, the source gives them in different places.

Legend:
P. acnes NCTC 737 [1] = test: Minimum bactericidal concentration (MBC) assay; assay type: cell-based, Propionibacterium acnes
Experimental: (§1) (b) Minimum Bactericidal Concentration (MBC) Assay
(§2) Following incubation they were examined visually for bacterial growth.

P. acnes NCTC 737 [2] = test: Disc diffusion assay (DDA), also supplemented;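 also: paper disc carrying compound placed on inoculated Wilkins-Chalgren Anaerobe agar pH 6.0, with lipid or NaCl supplement where listed, anaerobic 37 °C for 72 h, inhibition zone diameter read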
Experimental: (§6) The propionibacteria were cultured and maintained on Wilkins-Chalgren Anaerobe Medium (agar and broth) at pH 6.0; all cultures were incubated anaerobically at 37° C. for 72 hours.
(d) Disc Diffusion Assay (DDA)
A sterile paper disc was impregnated with a sample of the test compound in a suitable solvent and 30 minutes allowed for the solvents to evaporate (where possible). The disc was then placed on an agar plate onto which the test micro-organism had been inoculated. The plate was then incubated under the conditions described above, following which it was examined visually for signs of bacterial growth. […] The diameter of this zone of “inhibition” was measured using a ProtoCOL™ automated zone sizer (Synbiosis, Cambridge, UK).
(f) Supplemented Disc Diffusion Assays
(§7) For assays using Propionibacterium spp. strains the supplements used in the examples below were lipid (either Tween™ 80 or triolein, both at 1% v/v) and sodium chloride (100 mM).

S. aureus ATCC 29213 [3] = test: Minimum inhibitory concentration (MIC) assay; assay type: cell-based, Staphylococcus aureus
From the text: (§3) (a) Minimum Inhibitory Concentration (MIC) Assay
(§4) The culture media were as described above.
(§5) The assays included both negative (culture medium with no micro-organisms) and positive (culture medium plus diluting solvent plus micro-organism) controls.

P. acnes NCTC 737 [4] = test: Synergy disc diffusion assay (SDDA), also supplemented
Experimental: as §6
(e) Synergy Disc Diffusion Assay (SDDA)
This is a variation on the DDA method, in which two compounds are tested together for their combined antimicrobial activity.
Two test compounds A and B were placed on a single paper disc and the above described DDA procedure repeated.
(f) Supplemented Disc Diffusion Assays
as §7

S. aureus ATCC 29213 [5] = test: Disc diffusion assay (DDA), also supplemented
S. aureus ATCC 29213 [6] = test: Synergy disc diffusion assay (SDDA), also supplemented;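 also: disc diffusion on Mueller-Hinton agar at pH 7.2, aerobic incubation at 37 °C lasting 19-20 h, two compounds assessed jointly for combined antimicrobial effect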
S. aureus ATCC 29213 [7] = test: Minimum bactericidal concentration (MBC) assay; assay type: cell-based, Staphylococcus aureus
Experimental: as §1, §2

P. acnes NCTC 737 [8] = test: Minimum inhibitory concentration (MIC) assay; assay type: cell-based, Propionibacterium acnes
From the text: as §3, §4, §5

[9] = copper salt alone, P. acnes NCTC 737
[10] = copper salt alone, 200 μg per disc (silicate 62 μg), 1% (v/v) Tween 80
[11] = copper salt alone, 200 μg per disc (silicate 62 μg), salt and 1% (v/v) Tween 80
[12] = copper salt alone, 200 μg per disc (silicate 62 μg), sodium chloride (100 mM)
[13] = copper salt alone, S. aureus ATCC 29213
[14] = copper salt + TBHQ on one disc, 200 μg of each (silicate 62 μg), salt and lipid (1% (v/v) Tween 80)
[15] = copper salt + TBHQ on one disc, 200 μg of each (silicate 62 μg), unsupplemented
[16] = copper salt + TBHQ vs larger zone of either compound alone, unsupplemented
[17] = copper salt + TBHQ, salt and lipid (1% (v/v) Tween 80)
[18] = copper salt + TBHQ, unsupplemented
[19] = copper salt alone, 200 μg per disc (silicate 62 μg), Tween 80 at 1% v/v
[20] = copper salt alone, 200 μg per disc (silicate 62 μg), salt and horse serum (5% v/v)
[21] = copper salt + TBHQ on one disc, 200 μg of each (silicate 62 μg), salt and serum supplements
[22] = copper salt + TBHQ, salt and serum supplements

`[Br][Cu][Br]` [Copper (II) bromide] was tested, and the MBC (P. acnes NCTC 737 [1]; [9]) was 62.5 µg/mL, the “DDA + lipid” value (P. acnes NCTC 737 [2]; [10]) was 42.37 mm and the “DDA + salt & lipid” value (P. acnes NCTC 737 [2]; [11]) was 49.23 mm. The “DDA + salt” value (P. acnes NCTC 737 [2]; [12]) was 47.94 mm, the MIC (S. aureus ATCC 29213 [3]; [13]) was >250 µg/mL and the “SL SDDA with TBHQ” value (P. acnes NCTC 737 [4]; [14]) was 65.39 mm. The “SDDA with TBHQ” value (P. acnes NCTC 737 [4]; [15]) was 66.3 mm, the SDDA increase (P. acnes NCTC 737 [4]; [16]) was 11.47 mm and the “SL SDDA area increase” value (P. acnes NCTC 737 [4]; [17]) was 76.46%. The “SL SDDA increase” value (P. acnes NCTC 737 [4]; [17]) was 16.17 mm, the SDDA area increase (P. acnes NCTC 737 [4]; [18]) was 46.18% and the “DDA + lipid” value (S. aureus ATCC 29213 [5]; [19]) was 0 mm. The “DDA + salt & serum” value (S. aureus ATCC 29213 [5]; [20]) was 0 mm, the “DDA + salt” value (S. aureus ATCC 29213 [5]; [12]) was 0 mm and the “SS SDDA with TBHQ” value (S. aureus ATCC 29213 [6]; [21]) was 44.42 mm. The “SDDA with TBHQ” value (S. aureus ATCC 29213 [6]; [15]) was 59.26 mm, the SDDA increase (S. aureus ATCC 29213 [6]; [16]) was 18.84 mm and the “SS SDDA area increase” value (S. aureus ATCC 29213 [6]; [22]) was 3.42%. The “SS SDDA increase” value (S. aureus ATCC 29213 [6]; [22]) was 0.74 mm, the SDDA area increase (S. aureus ATCC 29213 [6]; [18]) was 114.95% and the MBC (S. aureus ATCC 29213 [7]; [13]) was >250 µg/mL. The MIC (P. acnes NCTC 737 [8]; [9]) was 7.8 µg/mL and the MIC/MBC ratio (P. acnes NCTC 737 [8]; [9]) was 0.125.

`[Cl-].[Cu+2].[Cu+2].[OH-].[OH-].[OH-]` [Copper (II) oxychloride] was tested, and the MBC (P. acnes NCTC 737 [1]; [9]) was 15.6 µg/mL, the DDA (P. acnes NCTC 737 [2]) was 51.21 mm and the “DDA + lipid” value (P. acnes NCTC 737 [2]; [10]) was 51.65 mm. The “DDA + salt & lipid” value (P. acnes NCTC 737 [2]; [11]) was 52.04 mm, the “DDA + salt” value (P. acnes NCTC 737 [2]; [12]) was 54.47 mm and the MIC (S. aureus ATCC 29213 [3]; [13]) was >250 µg/mL. For the same compound, the “SL SDDA with TBHQ” value (P. acnes NCTC 737 [4]; [14]) was 54.02 mm, the “SDDA with TBHQ” value (P. acnes NCTC 737 [4]; [15]) was 59.45 mm and the SDDA increase (P. acnes NCTC 737 [4]; [16]) was 8.24 mm. For the same compound, the “SL SDDA area increase” value (P. acnes NCTC 737 [4]; [17]) was 7.76%, the “SL SDDA increase” value (P. acnes NCTC 737 [4]; [17]) was 1.98 mm and the SDDA area increase (P. acnes NCTC 737 [4]; [18]) was 34.77%. For the same compound, the DDA (S. aureus ATCC 29213 [5]) was 0 mm, the “DDA + lipid” value (S. aureus ATCC 29213 [5]; [19]) was 0 mm and the “DDA + salt & serum” value (S. aureus ATCC 29213 [5]; [20]) was 0 mm. The “DDA + salt” value (S. aureus ATCC 29213 [5]; [12]) was 0 mm, the “SS SDDA with TBHQ” value (S. aureus ATCC 29213 [6]; [21]) was 43.89 mm and the “SDDA with TBHQ” value (S. aureus ATCC 29213 [6]; [15]) was 52.63 mm. The SDDA increase (S. aureus ATCC 29213 [6]; [16]) was 12.21 mm, the “SS SDDA area increase” value (S. aureus ATCC 29213 [6]; [22]) was 0.96% and the “SS SDDA increase” value (S. aureus ATCC 29213 [6]; [22]) was 0.21 mm. For the same compound, the SDDA area increase (S. aureus ATCC 29213 [6]; [18]) was 69.54%, the MBC (S. aureus ATCC 29213 [7]; [13]) was >250 µg/mL and the MIC (P. acnes NCTC 737 [8]; [9]) was 0.98 µg/mL. For the same compound, the MIC/MBC ratio (P. acnes NCTC 737 [8]; [9]) was 0.06.

`On1ccccc1=S.On1ccccc1=S.[Cu]` [Copper (II) pyrithione] was tested, and the MBC (P. acnes NCTC 737 [1]) was 0.49 µg/mL, the DDA (P. acnes NCTC 737 [2]) was 56.42 mm and the “DDA + lipid” value (P. acnes NCTC 737 [2]) was 22.38 mm. The “DDA + salt” value (P. acnes NCTC 737 [2]) was 43.21 mm, the “DDA + salt & lipid” value (P. acnes NCTC 737 [2]) was 33.37 mm and the MIC (S. aureus ATCC 29213 [3]) was 0.49 µg/mL. It also gave an MIC/MBC ratio (S. aureus ATCC 29213 [3]) of 1, an SDDA area increase (P. acnes NCTC 737 [4]) of 18.55% and an SDDA increase (P. acnes NCTC 737 [4]) of 5.01 mm. The “SDDA with TBHQ” value (P. acnes NCTC 737 [4]) was 61.43 mm, the “SL SDDA area increase” value (P. acnes NCTC 737 [4]) was 7.64% and the “SL SDDA increase” value (P. acnes NCTC 737 [4]) was 1.25 mm. The “SL SDDA with TBHQ” value (P. acnes NCTC 737 [4]) was 34.63 mm, the DDA (S. aureus ATCC 29213 [5]) was 20.51 mm and the “DDA + lipid” value (S. aureus ATCC 29213 [5]) was 15.25 mm. For the same compound, the “DDA + salt” value (S. aureus ATCC 29213 [5]) was 21.48 mm, the “DDA + salt & serum” value (S. aureus ATCC 29213 [5]) was 17.86 mm and the SDDA area increase (S. aureus ATCC 29213 [6]) was 150.13%. For the same compound, the SDDA increase (S. aureus ATCC 29213 [6]) was 19.29 mm, the “SDDA with TBHQ” value (S. aureus ATCC 29213 [6]) was 52.45 mm and the “SS SDDA area increase” value (S. aureus ATCC 29213 [6]) was 66.12%. For the same compound, the “SS SDDA increase” value (S. aureus ATCC 29213 [6]) was 9.29 mm, the “SS SDDA with TBHQ” value (S. aureus ATCC 29213 [6]) was 41.43 mm and the MBC (S. aureus ATCC 29213 [7]) was 0.49 µg/mL. It also gave an MIC (P. acnes NCTC 737 [8]) of 0.24 µg/mL and an MIC/MBC ratio (P. acnes NCTC 737 [8]) of 0.5.

In the case of `O.O=C([O-])C(O)C(O)C(=O)[O-].[Cu+2]` (stereo not drawn) [Copper (II) tartrate hydrate], the MBC (P. acnes NCTC 737 [1]) is reported as 62.5 µg/mL, the DDA (P. acnes NCTC 737 [2]) is reported as 49.64 mm and the “DDA + lipid” value (P. acnes NCTC 737 [2]) is reported as 38.35 mm. For the same compound, the “DDA + salt” value (P. acnes NCTC 737 [2]) was 48.25 mm, the “DDA + salt & lipid” value (P. acnes NCTC 737 [2]) was 47.56 mm and the MIC (S. aureus ATCC 29213 [3]) was >250 µg/mL. The SDDA area increase (P. acnes NCTC 737 [4]) was 20.27%, the SDDA increase (P. acnes NCTC 737 [4]) was 4.8 mm and the “SDDA with TBHQ” value (P. acnes NCTC 737 [4]) was 54.44 mm. For the same compound, the “SL SDDA area increase” value (P. acnes NCTC 737 [4]) was 24.11%, the “SL SDDA increase” value (P. acnes NCTC 737 [4]) was 5.42 mm and the “SL SDDA with TBHQ” value (P. acnes NCTC 737 [4]) was 52.98 mm. For the same compound, the DDA (S. aureus ATCC 29213 [5]) was 0 mm, the “DDA + lipid” value (S. aureus ATCC 29213 [5]) was 0 mm and the “DDA + salt” value (S. aureus ATCC 29213 [5]) was 0 mm. The “DDA + salt & serum” value (S. aureus ATCC 29213 [5]) was 0 mm, the SDDA area increase (S. aureus ATCC 29213 [6]) was −88.71% and the SDDA increase (S. aureus ATCC 29213 [6]) was −26.84 mm. For the same compound, the “SDDA with TBHQ” value (S. aureus ATCC 29213 [6]) was 13.58 mm, the “SS SDDA area increase” value (S. aureus ATCC 29213 [6]) was −94.19% and the “SS SDDA increase” value (S. aureus ATCC 29213 [6]) was −33.15 mm. For the same compound, the “SS SDDA with TBHQ” value (S. aureus ATCC 29213 [6]) was 10.53 mm, the MBC (S. aureus ATCC 29213 [7]) was >250 µg/mL and the MIC (P. acnes NCTC 737 [8]) was 15.6 µg/mL. For the same compound, the MIC/MBC ratio (P. acnes NCTC 737 [8]) was 0.25.
